# Measurements taken from US7419655B2, “Skin care products” (Kimberly-Clark Worldwide, Inc., priority 2002, dated 2008).
# Entries after “also recorded” stand apart in the source; their conditions may differ.
# Columns and labels:
# [1] = system: human skin fibroblast cell line (normal human dermal fibroblasts, neonatal); assay: Fibroblast proliferative response, 96-well Cell Titer 96 Aqueous One assay (Example 1, FIG. 1, Table 1); type: cell-based; settings: for Mean (spectrophotometric absorbance at 490 nm) / Median (spectrophotometric absorbance at 490 nm): 28 hours incubation, n=5, Table 1; for cell growth / cell density (OD), FIG. 1: control OD about 0.6
# Protocol: A human skin fibroblast cell line was obtained from Clonetics (Walkersville, Md., normal human dermal fibroblasts, neonatal). Stock solutions of CNA were prepared with chitosan (0.0297M, degree of deacetylation 78.8%, Vanson Inc.) and equimolar amounts of ascorbic acid and niacinamide (0.01649M, Sigma Chemical Co.) in water. Test solutions of chitosan (0.0297M) and niacinamide ascorbate (0.01649M) were separately prepared. All the compounds were tested at two doses, 5 and 10 ul with n=5. DMEM was used as a negative control (n=5). The proliferative response of CNA, chitosan and NA, on the human skin fibroblast cell was measured in a 96-well assay system using serum-free DMEM (Dulbecco's Modified Eagle's Medium, Sigma Chemical Co.) as a control. Cells were seeded into 96 well plates at a concentration of 1×10^3 cells in 100 μl of DMEM containing 10% fetal bovine serum (FBS, Sigma Chemical Co., St. Louis, Mo.). Plates were incubated for 24 hours at 37° C. in a humidified 5% CO2 atmosphere. After incubation, the medium was aspirated and the wells were rinsed twice with 100 μl of serum-free DMEM. The final rinse was aspirated and 100 ul DMEM serum was added to each well before adding test compounds. All wells were incubated for 28 hours at 37° C. in a humidified, 5% CO2 atmosphere. After incubation, 20 μl of Cell Titer 96 Aqueous One Solution (Promega) was added to all wells. The plates were swirled gently and placed back in the incubator for 90 minutes and spectrophotometric absorbance was read at 490 nm. Statistical analysis of data was performed by using one-way ANOVA. P<0.05 is considered significant while P<0.001 is considered as very very significant.
# [2] = system: human skin fibroblast cell line (normal human dermal fibroblasts, neonatal); assay: Fibroblast proliferative response, 96-well Cell Titer 96 Aqueous One assay (Example 2, FIG. 2, Table 2); type: cell-based; settings: for effect on cellular proliferation (in words): 5 and 10 ul, versus serum-free DMEM control, one-way ANOVA; for Mean (spectrophotometric absorbance at 490 nm) / Median (spectrophotometric absorbance at 490 nm): 28 hours incubation, n=5, Table 2
# Protocol: A stock solution of CNA was prepared with chitosan (0.0297M) and equimolar amounts of ascorbic acid and niacinamide (0.01649M) in water. Test solutions of equimolar ascorbic acid and niacinamide (0.01649M) were prepared separately in water. All the compounds were tested at two doses, 5 and 10 ul with n=5. DMEM was used as a negative control (n=5). The proliferative response of CNA, ascorbic acid and niacinamide, on the human skin fibroblast cell line (Clonetics, Walkersville, Md., normal human dermal fibroblasts, neonatal) was measured in a 96-well assay system using serum-free DMEM (Dulbecco's Modified Eagle's Medium, Sigma Chemical Co.) as a control. Cells were seeded into 96 well plates at a concentration of 1×10^2 cells in 100 μl of DMEM containing 10% fetal bovine serum (FBS, Sigma Chemical Co., St. Louis, Mo.). Plates were incubated for 24 hours at 37° C. in a humidified 5% CO2 atmosphere. After incubation, the medium was aspirated and the wells were rinsed twice with 100 μl of serum-free DMEM. The final rinse was aspirated and 100 ul DMEM serum was added to each well before adding test compounds. All wells were incubated for 28 hours at 37° C. in a humidified, 5% CO2 atmosphere. After incubation, 20 μl of Cell Titer 96 Aqueous One Solution (Promega) was added to all wells. The plates were swirled gently and placed back in the incubator for 90 minutes and spectrophotometric absorbance was read at 490 nm. Statistical analysis of data was performed by using one-way ANOVA. P<0.05 is considered significant while P<0.001 is considered as very very significant.
# [3] = group suffix 1 (doses were 5 and 10 ul)
# [4] = group suffix 2 (doses were 5 and 10 ul)
SMILES,"effect on fibroblast growth / proliferation (in words) ([1]; 5 and 10 ul, versus serum-free DMEM control, one-way ANOVA)",Mean (spectrophotometric absorbance at 490 nm) ([1]; 5 ul dose),Median (spectrophotometric absorbance at 490 nm) ([1]; 5 ul dose),"cell growth / cell density (OD), FIG. 1 ([1]; 5 μl)",Mean (spectrophotometric absorbance at 490 nm) ([1]; 10 ul dose),Median (spectrophotometric absorbance at 490 nm) ([1]; 10 ul dose),"cell growth / cell density (OD), FIG. 1 ([1]; 10 μl)",effect on cellular proliferation (in words) [2],"Mean (spectrophotometric absorbance at 490 nm) [2, 3]","Median (spectrophotometric absorbance at 490 nm) [2, 3]","Mean (spectrophotometric absorbance at 490 nm) [2, 4]","Median (spectrophotometric absorbance at 490 nm) [2, 4]"
"NC(=O)c1cccnc1.O=C1O[C@H]([C@@H](O)CO)C(O)=C1O [NA, niacinamide ascorbate]",appeared to inhibit cellular growth in a dose dependent manner; also recorded: appears depress fibroblast cell growth,0.5650,0.5630,about 0.58,0.4826,0.4870,about 0.50,,,,,
"NC(=O)c1cccnc1 [Niacinamide, niacinamide]",,,,,,,,did not show any statistical difference,0.3108,0.3140,0.3048,0.3070
"O=C1O[C@H]([C@@H](O)CO)C(O)=C1O [Ascorbic acid, ascorbic acid]",,,,,,,,some cell proliferating activity,0.4002,0.3990,0.4598,0.4510
